Patent publication US20240390383A1, “DIOXAZINES AND THEIR USE IN TREATMENT OF GBA-RELATED DISEASES” (ZEVRA DENMARK A/S, priority 2021, published 2024)
Marks after values point to notes of the source that are not given here.

Biological target: T1, GCase (GBA) in human fibroblast cell line GM10915 harboring the L444P GBA mutation (Homo sapiens, UniProt P04062, L483P)
T1 construct: Human fibroblast cell line GM10915 harboring the L444P GBA mutation; host or cells: GM10915 human fibroblasts
T1 sequence (P04062 40-536 L483P): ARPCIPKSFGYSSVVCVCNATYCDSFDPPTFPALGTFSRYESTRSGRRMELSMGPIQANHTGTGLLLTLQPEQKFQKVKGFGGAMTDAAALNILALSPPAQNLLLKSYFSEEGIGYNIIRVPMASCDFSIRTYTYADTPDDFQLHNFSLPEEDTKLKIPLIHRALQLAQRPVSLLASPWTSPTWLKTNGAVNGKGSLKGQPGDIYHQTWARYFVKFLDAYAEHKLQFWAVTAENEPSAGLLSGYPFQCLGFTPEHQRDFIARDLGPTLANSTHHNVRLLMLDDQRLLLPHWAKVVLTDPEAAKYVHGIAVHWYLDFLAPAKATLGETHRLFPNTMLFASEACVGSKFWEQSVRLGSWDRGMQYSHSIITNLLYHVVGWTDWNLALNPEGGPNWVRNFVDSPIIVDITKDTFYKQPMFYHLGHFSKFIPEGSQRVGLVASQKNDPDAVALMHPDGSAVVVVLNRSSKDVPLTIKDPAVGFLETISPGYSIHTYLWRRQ
Assay: GCase activity assay (4-MUG substrate, normalised to crystal violet staining) in L444P GBA fibroblasts
Assay type: cell-based
Settings: 5 days exposure; for GBA EC1.5: concentration giving 150% GCase activity (1.5-fold induction), 8-point dose range; for Emax: maximum percent GCase activity relative to untreated cells in the dose range tested
In short: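 Patient fibroblasts GM10915 (L444P GBA) exposed to compounds for five days over an 8-point range, with fresh dosing every 2–3 days. Intact-cell GCase measured with 2.5 mM 4-MUG at pH 4.0 for 23 h at 37 °C (ex/em 365/445 nm), normalised to crystal violet, as % of PBS basal; Emax is the maximum reached.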

Row | SMILES | GBA EC1.5 | Emax [%]
1 | C1CCN(CC2CON=C(C3(C4CCNCC4)CC3)O2)CC1 (racemic) [compound 521, rac-5-(piperidin-1-ylmethyl)-3-(1-(piperidin-4-yl)cyclopropyl)-5,6-dihydro-1,4,2-dioxazine] | 19 µM | 336
2 | CN1[C@@H]2CC[C@H]1CN(CC1CON=C(C3(C)CCNCC3)O1)C2 (stereo partly drawn) [compound 603] | 50 µM | 102
3 | FC(F)(F)CN1CCCC(C2=NOCC(CN3CCCCC3)O2)C1 (stereo not drawn) [compound 570] | 50 µM | 107
4 | CN(C)CC1CON=C(C2CCNC2)O1 (stereo not drawn) [compound 615] | 50 µM | 108
5 | Cn1ccnc1CC1(C2=NOCC(CN3CCCCC3)O2)CCNCC1 (stereo not drawn) [compound 607] | 50 µM | 123
6 | C[C@@]12CNC[C@]1(C1=NOCC(CN3CCCCC3)O1)C2 (relative stereo) [compound 481, rac-rel-trans-3-((1R,5R)-5-methyl-3-azabicyclo[3.1.0]hexan-1-yl)-5-(piperidin-1-ylmethyl)-5,6-dihydro-1,4,2-dioxazine] | 22 µM | 174
7 | CN1CCC(C2=NOCC(CN3CCCCC3)O2)CC1 (racemic) [compound 770, rac-3-(1-methylpiperidin-4-yl)-5-(piperidin-1-ylmethyl)-5,6-dihydro-1,4,2-dioxazine] | 9 µM | 265
8 | Nc1ccc(N2CCC(C3=NOCC(CN4CCCCC4)O3)C2)nc1 (stereo not drawn) [compound 698] | 50 µM | 137
9 | COc1cc(C)c(CC2(C3=NOCC(CN4CCCCC4)O3)CCNCC2)cn1 (stereo not drawn) [compound 702] | 50 µM | 110
10 | O=C1NCCC1C1=NOCC(CN2CCCCC2)O1 (stereo not drawn) [compound 637] | 50 µM | 111
11 | C1CCN(CC2CON=C([C@@]34CNC[C@@H]3C4)O2)CC1 (relative stereo) [compound 482, rac-rel-trans-3-((1R,5R)-3-azabicyclo[3.1.0]hexan-1-yl)-5-(piperidin-1-ylmethyl)-5,6-dihydro-1,4,2-dioxazine] | 14 µM | 268
12 | C1CCN(CC2CON=C([C@]34CNC[C@H]3CCOC4)O2)CC1 (relative stereo) [compound 461, rac-rel-trans-(3aR,7aR)-3a-(5-(piperidin-1-ylmethyl)-5,6-dihydro-1,4,2-dioxazin-3-yl)octahydropyrano[3,4-c]pyrrole] | 19 µM | 203
13 | C[C@H](N)C(=O)N1CCCC(C2=NOCC(CN3CCCCC3)O2)C1 (stereo partly drawn) [compound 718, rac-(2S)-2-amino-1-(3-(5-(piperidin-1-ylmethyl)-5,6-dihydro-1,4,2-dioxazin-3-yl)piperidin-1-yl)propan-1-one] | 17 µM | 341
14 | CN(C)c1ccc(CC2(C3=NOCC(CN4CCCCC4)O3)CCNCC2)cn1 (stereo not drawn) [compound 543] | 3 µM | 138
15 | CN1C[C@@H](O)C[C@H](C2=NOCC(CN3CCCCC3)O2)C1 (relative stereo) [compound 724, rac-rel-(3R,5R)-1-methyl-5-(5-(piperidin-1-ylmethyl)-5,6-dihydro-1,4,2-dioxazin-3-yl)piperidin-3-ol] | 16 µM | 274
16 | C[C@@]1(C2=NOC[C@@H](CN3CCCCC3)O2)CCCNC1 [compound 883] | 7 µM | 201
17 | c1cn2c(n1)CC(C1=NOCC(CN3CCCCC3)O1)CC2 (racemic) [compound 660, rac-5-(piperidin-1-ylmethyl)-3-(5,6,7,8-tetrahydroimidazo[1,2-a]pyridin-7-yl)-5,6-dihydro-1,4,2-dioxazine] | 9 µM | 212
18 | c1cncc(CNCCC2=NOCC(CN3CCCCC3)O2)c1 (racemic) [compound 797, rac-2-(5-(piperidin-1-ylmethyl)-5,6-dihydro-1,4,2-dioxazin-3-yl)-N-(pyridin-3-ylmethyl)ethan-1-amine] | 46 µM | 149
19 | COC1CN(C)CCC1C1=NOCC(CN2CCCCC2)O1 (racemic) [compound 720, rac-3-(3-methoxy-1-methylpiperidin-4-yl)-5-(piperidin-1-ylmethyl)-5,6-dihydro-1,4,2-dioxazine] | 11 µM | 346
20 | CN(C)CCCC1=NOCC(CN2CCCCC2)O1 (racemic) [compound 768, rac-N,N-dimethyl-3-(5-(piperidin-1-ylmethyl)-5,6-dihydro-1,4,2-dioxazin-3-yl)propan-1-amine] | 6 µM | 238
21 | CC1(C2=NOCC(CN3CCCCC3)O2)CCCNC1 (racemic) [compound 476, rac-3-(3-methylpiperidin-3-yl)-5-(piperidin-1-ylmethyl)-5,6-dihydro-1,4,2-dioxazine] | 6 µM | 253

Row | SMILES | GBA EC1.5 | Emax [%]
22 | CC1(C2=NOCC(CN3CCCCC3)O2)CNCCO1 (racemic) [compound 480, rac-3-(2-methylmorpholin-2-yl)-5-(piperidin-1-ylmethyl)-5,6-dihydro-1,4,2-dioxazine] | 16 µM | 273
23 | c1ccc(N2CCC(C3=NOCC(CN4CCCCC4)O3)C2)nc1 (stereo not drawn) [compound 672] | 50 µM | 127
24 | C[C@@H]1CC(C2=NOCC(CN3CCCCC3)O2)C[C@H](C)N1 (mixture of isomers) [compound 633, rac-3-((2R,6S)-2,6-dimethylpiperidin-4-yl)-5-(piperidin-1-ylmethyl)-5,6-dihydro-1,4,2-dioxazine] | 5 µM | 226
25 | CN1CCC2CN(CC3CON=C(C4(C)CCNCC4)O3)CC2C1 (stereo not drawn) [compound 602] | 50 µM | 121
26 | COc1ccc(CC2(C3=NOCC(CN4CCCCC4)O3)CCNCC2)c(C)n1 (stereo not drawn) [compound 703] | 50 µM | 113
27 | CN(C)CCC1=NOCC(CN2CCCCC2)O1 (racemic) [compound 779, rac-N,N-dimethyl-2-(5-(piperidin-1-ylmethyl)-5,6-dihydro-1,4,2-dioxazin-3-yl)ethan-1-amine] | 11 µM | 259
28 | COc1ncc(CC2(C3=NOC(C)C(CN4CCCCC4)O3)CCNC2)cc1Cl (stereo not drawn) [compound 647] | 50 µM | 103
29 | c1cnn(C2(C3=NOCC(CN4CCCCC4)O3)CCNCC2)c1 (stereo not drawn) [compound 848] | 2 µM | 311
30 | CN(C)C12CCC(C3=NOCC(CN4CCCCC4)O3)(CC1)CC2 (racemic) [compound 640, rac-N,N-dimethyl-4-(5-(piperidin-1-ylmethyl)-5,6-dihydro-1,4,2-dioxazin-3-yl)bicyclo[2.2.2]octan-1-amine] | 6 µM | 183
31 | C1CCN(CCC2=NOC[C@H](CN3CCCCC3)O2)CC1 [compound 891] | 15 µM | 209
32 | CN(C)C(=O)N1CCC(C2=NOCC(CN3CCCCC3)O2)CC1 (stereo not drawn) [compound 684] | 50 µM | 109
33 | c1nc2n(n1)CCC(C1=NOCC(CN3CCCCC3)O1)C2 (stereo not drawn) [compound 662] | 50 µM | 138
34 | CC(C)(C1=NOCC(CN2CCCCC2)O1)C1CCNC1 (racemic) [compound 491, rac-5-(piperidin-1-ylmethyl)-3-(2-(pyrrolidin-3-yl)propan-2-yl)-5,6-dihydro-1,4,2-dioxazine] | 28 µM | 230
35 | COc1ncc(CC2(C3=NOC(C)C(CN4CCCCC4)O3)CCN(C)C2)cc1Cl (stereo not drawn) [compound 646] | 50 µM | 112
36 | CC(N)C(=O)N1CCC(C2=NOCC(CN3CCCCC3)O2)CC1 (racemic) [compound 748, rac-2-amino-1-(4-(5-(piperidin-1-ylmethyl)-5,6-dihydro-1,4,2-dioxazin-3-yl)piperidin-1-yl)propan-1-one] | 16 µM | 283
37 | NC(=O)CN1CCCC(C2=NOCC(CN3CCCCC3)O2)C1 (racemic) [compound 711, rac-2-(3-(5-(piperidin-1-ylmethyl)-5,6-dihydro-1,4,2-dioxazin-3-yl)piperidin-1-yl)acetamide] | 38 µM | 198
38 | FC1(F)CNCCC1C1=NOCC(CN2CCCCC2)O1 (stereo not drawn) [compound 636] | 50 µM | 126
39 | c1cnc(N2CCC(C3=NOCC(CN4CCCCC4)O3)CC2)nc1 (stereo not drawn) [compound 658] | 50 µM | 116
40 | Nc1c(Br)cc(Br)cc1CN[C@H]1CC[C@H](O)CC1 [Ambroxol, reference compound] | >20* *The 1.5-fold induction criteria was not reached within the tested concentration range μM | 
41 | CC1(C2=NOCC(CN3CCNC(C(F)(F)F)CC3)O2)CCNCC1 (racemic) [compound 500, rac-3-(4-methylpiperidin-4-yl)-5-((5-(trifluoromethyl)-1,4-diazepan-1-yl)methyl)-5,6-dihydro-1,4,2-dioxazine] | 14 µM | 166
